Laboratory results: US20190070296A1, “SONODYNAMIC THERAPY” (LI-COR, INC., priority 2017, published 2019)

Columns and labels:
[1] = tested on: A431 cells; assay: VB-48 Assay: vitality, viability and necrosis after probe labeling and irradiation; format: cell-based; details: irradiated 32 J/cm^2; RGD-700DX 0.5 μM, EGF-700DX 0.5 μM, 700DX NHSe 5 μM, Pan-700DX ~0.1 μM; 24 hours post treatment
Method: Briefly, A431 cells were labeled with respective probes for specific treatments (listed below); cells were rinsed and evaluated for labeling. The test include the following treatments: […], treatments 3-4 of EGF-IRDye® 700DX at 0.5 μM and radiation, treatments 5-6 of IRDye® 700DX NHSe at 5 μM and radiation, treatments 7-8 of panitumumab-IRDye® 700DX at about 0.1 μM and radiation, treatment 9 of a negative control with no probe and no irradiation, and treatment 10 of RGD-IRDye® 700DX and no irradiation. The probes were incubated for about 10 minutes and with a longer period of about 20 minutes for the RGD probe.

[2] = Sonoactivation of IRDye 700DX solution; singlet oxygen detected with Sensor Green indicator; details: ultrasonic wave at 1MHz and 2.0W/cm^2
Description: As shown therein, there is generation of singlet oxygen during the sonodynamic process. By applying the ultrasonic wave at 1MHz and 2.0W/cm^2 to the agent IRDye® 700DX, the enhancement of the emission of the singlet oxygen indicator, Sensor Green (SG), indicates the occurrence of a sonodynamic effects. Singlet oxygen was detected.
Both sonosensitization, also known as sonodynamic activation or sonoactivation, and photosensitization, also known as photodynamic activation or photoactivation, trigger reactive oxidation species (ROS) or single oxygen (^1O2) that results in cell death via either apoptosis or necrosis, and thus sonodynamic therapy (SDT) or photodynamic therapy (PDT), respectively.

[3] = Emission profile of IRDye 700DX (700 nm range) after ultrasound: stability of the dye; format: physicochemical; details: 1MHz ultrasonic wave at 3 W/cm^2, 15 minutes
[4] = Sonoactivation of IRDye 700DX solution; reactive oxygen species detected with dihydrorhodamine 123 (DHRd123) indicator
Description: The results illustrate that ultrasonic waves enhance the emission of a reactive oxygen species indicator, which indicates the occurrence of one of the sonodynamic effects generated by applying ultrasonic energy to IRDye® 700DX under the experimental conditions. In this example, the concentration of IRDye® 700DX was 1 μm.
The experiment included dihydroxy rhodamine 123 to detect the presence of reactive oxygen species. Reactive oxygen species were detected.
The results illustrate a continuous treatment of a 1 MHz ultrasonic wave. […] The experiment included dihydroxy rhodamine 123 to detect the presence of reactive oxygen species. Reactive oxygen species were detected. […]

[5] = continuous treatment of a 1 MHz ultrasonic wave

Pan-700DX: panitumumab antibody labeled with IRDye 700DX
% Healthy [1]: 15.0%
% Necrotic [1]: 70%
Cells/mL [1]: 1.2 × 10^5 Cells/mL
Est % Viability [1]: 30-40%
Low % Vitality [1]: 15%

C[Si](C)(CCC[N+](CCCS(=O)(=O)[O-])(CCCS(=O)(=O)[O-])CCCS(=O)(=O)[O-])O[Si]1(O[Si](C)(C)CCC[N+](CCCS(=O)(=O)[O-])(CCCS(=O)(=O)[O-])CCCS(=O)(=O)[O-])n2c3c4ccccc4c2N=C2N=C(N=c4c5ccccc5c(n41)=NC1=NC(=N3)c3ccccc31)c1cccc(OCCCOC(=O)NCCCCCC(=O)ON3C(=O)CCC3=O)c12.[Na+].[Na+].[Na+].[Na+] (centres unmarked) [IRDye® 700DX]
generation of singlet oxygen (Sensor Green), FIG. 5 [2]: detected
chemical structure of the dye after sonodynamic activation (emission profile at 700 nm range) [3]: did not decompose
Primary Sonodynamic Effect Detected ([4]; 700DX 1 uM with DHRd123, no sonodynamic activation (placebo), 7 min): None
Primary Sonodynamic Effect Detected ([4]; 700DX 1 uM with DHRd123, no sonodynamic activation (placebo), 15 min): Minimal
Primary Sonodynamic Effect Detected ([4]; 700DX with DHRd123, 1 MHz, 2.2 W/cm^2, 7 + 7 min, duty cycle 20%, 370 J/cm^2): ROS+
Primary Sonodynamic Effect Detected ([4]; 700DX with DHRd123, 1 MHz, 2.2 W/cm^2, 7 min, duty cycle 20%, 185 J/cm^2): ROS
Primary Sonodynamic Effect Detected ([4]; 700DX with DHRd123, 1 MHz, 2.2 W/cm^2, 15 min, duty cycle 20%, 396 J/cm^2): ROS++
Primary Sonodynamic Effect Detected ([4]; 700DX with DHRd123, 3.3 MHz, 3 W/cm^2, 7 min, duty cycle 20%, 252 J/cm^2): ROS
Primary Sonodynamic Effect Detected ([4]; 700DX with DHRd123, 3.3 MHz, 3 W/cm^2, 15 min, duty cycle 20%, 540 J/cm^2): ROS++
emission of the reactive oxygen species indicator (FIG. 3) ([4]; IRDye 700DX 1 μm, 1MHz ultrasonic wave at 3 W/cm^2, 15 minutes): large increase in the emission of the indicator
emission peak of the reactive oxygen species indicator (FIG. 3) ([4]; IRDye 700DX 1 μm, duration 7 minutes): not as enhanced as with 15 minutes duration
presence of reactive oxygen species (dihydroxy rhodamine 123), FIG. 3 ([4]; IRDye 700DX 1 μm, ultrasonic wave 7 or 15 minutes): detected
effect of increasing the pulse duration on reactive oxygen species (FIG. 4) [4, 5]: increases the generation of reactive oxygen species
presence of reactive oxygen species (dihydroxy rhodamine 123), FIG. 4 [4, 5]: detected

COC(=O)c1ccccc1C1c2ccc(N)cc2Oc2cc(N)ccc21 [Sensitizer DHRd123 Solution, dihydrorhodamine 123, reference compound]
Primary Sonodynamic Effect Detected ([4]; DHRd123 solution 2.5 uM alone, no IRDye 700DX, no sonodynamic activation): None
Primary Sonodynamic Effect Detected ([4]; DHRd123 solution alone, no IRDye 700DX, 3.3 MHz, 3 W/cm^2, 15 min, duty cycle 20%, 540 J/cm^2): ROS

EGF-700DX
Cells/mL [1]: 3.4 × 10^5 Cells/mL
Low % Vitality [1]: 19%
